Source: patent US8338622B2, “Heterocyclic compound” (Takeda Pharmaceutical Company Limited, priority 2008, dated 2012)

How the values were obtained:
human RBP4 = molecular target: T1, human RBP4 (Homo sapiens, UniProt P02753); assay: Binding assay by Retinol-RBP4-TTR ELISA (human type ELISA); conditions: retinol 0.5 μM, read-out: human RBP4 binding inhibitory activity (IC50 nM)
T1 construct: the culture supernatant containing secreted/expressed hRBP4-His was recovered; His tag (His6, read from the HISENU oligo); made in house; host or cells: FreeStyle293 expression system (Invitrogen), secreted into the culture supernatant
Procedure: The action of the compound of the present invention to inhibit the binding between RBP4, and retinol and TTR was evaluated using the Retinol-RBP4-TTR ELISA (human type ELISA) system shown below.
The binding assay was performed by an ELISA system (Retinol-RBP4-TTR ELISA) for detecting retinol-RBP4-TTR conjugate by streptavidin-biotin reaction.
His-tagged human RBP4 used was prepared in the above-mentioned 1C.
Biotinylated human TTR used was prepared in the above-mentioned 1E.
Streptavidin (20 μl) (10 μg/ml Streptavidin type II (Wako Pure Chemical Industries, Ltd.), 10 mM Tris-HCl (pH 7.5), 10 mM NaCl) was added to a 384 well black maxisorp plate (Nunc), and the plate was subjected to centrifugation (1000 rpm, 1 min) and coated overnight at 4° C. The plate was washed twice with PBST (PBS, 0.05% Tween 20, 100 μl/well) and blocked with 25% Block Ace (Snow Brand Milk Products Co., Ltd., PBS, 100 μl/well). The plate was subjected to centrifugation (1000 rpm, 1 min) and incubated at room temperature for 4 hr or overnight at 4° C. The plate was washed twice with PBST (PBS, 0.05% Tween 20, 100 μl/well), and biotinylated human TTR (stock solution concentration 1.3 mg/ml) diluted 1000-fold with PBST was added at 20 μl/well. The plate was subjected to centrifugation (1000 rpm, 1 min) and stood still at room temperature for 1.5 hr or overnight at 4° C. The plate was washed 3 times with PEST (100 μl/well), and His-tagged human RBP4 (stock solution concentration 0.96 mg/ml) diluted 4000-fold with a reaction buffer (50 mM Tris-HCl, 150 mM NaCl, 0.005% Tween 20, 1 mM DTT, 0.1% BSA) was added at 10 μl/well. The dilution series (8 doses from 10 mM, 200-fold concentration) of the compound was prepared with DMSO, and 1 μl of each was added to a reaction buffer (200 μl) containing retinol (0.5 μM) (Sigma-Aldrich Co.). A reaction buffer (200 μl) containing retinol and added with DMSO was used as a positive control, and reaction buffer (200 μl) free of retinol and added with DMSO was used as a negative control. Mixed solutions of retinol and the compound were added to the plate at 15 μl/well. The mixture was stirred in a platemixer, subjected to centrifugation (1000 rpm, 1 min) and reacted at room temperature for 2 hr. A 35% Block Ace solution diluted with the reaction buffer was added at 10 μl/well, centrifuged (1000 rpm, 1 min) and reacted at room temperature for 30 min. The plate was washed 3 times with PBST (100 μl/well) and SuperSignal ELISA Femto Maximum Sensitivity Substrate reagent (PIERCE) was added at 30 μl/well, and the luminescence was measured by a platereader (Wallac).
The binding activity rate of the compound was determined by 100×(test compound value−negative control value)/(positive control value−negative control value). The binding inhibitory activity (IC50) was calculated from the binding activity rate at each compound concentration using a graph drawing software, Prism (GraphPad Software Inc.).

RBP4 = molecular target: T2, RBP4 (Mus musculus, UniProt Q00724); assay: Blood RBP4 lowering action in C57BL/6J mouse, single oral administration; type: in vivo; conditions: plasma, mean±SD n=5; for RBP4 (% of initial/Control) 0 hr later: 0 hr value before administration, 50 mg/kg oral; for RBP4 (% of initial/Control) 4 hr later: 4 hr after 50 mg/kg oral; for RBP4 (% of initial/Control) 7 hr later: 7 hr after 50 mg/kg oral; for RBP4 (% of initial/Control) 24 hr later: 24 hr after 50 mg/kg oral
T2 construct: from tissue; host or cells: plasma of male C57BL/6J mice (Charles River Laboratories Japan Inc.)
Procedure: A blood RBP4 lowering action of the compound of the present invention was evaluated using C57BL/6J mouse.
Male 7- to 15-week-old C57BL/6J mice (Charles River Laboratories Japan Inc.) were individually bred for acclimation for 4-6 days under conditions with free access to CE-2 solid food (CLEA Japan, Inc.), and grouped based on the body weight (5 per group). The next day of grouping, blood samples were collected from the orbital venous plexus, and plasma was separated (0 hr value). Thereafter, the test compounds (Examples 1, 13, 15, 16, 17, 27 and 34) were orally administered at a dose of 50 mg/kg (solvent: 0.5% methylcellulose solution (10 mL/kg)). At 4, 7 and 24 hr after administration of the compounds, blood samples were collected from the orbital venous plexus, and plasma was separated. A 0.5% methylcellulose solution (10 mL/kg) was orally administered to the control group.
The RBP4 level of the collected plasma was measured by ELISA. RBP4 was quantified by the following steps using a rabbit, anti-mouse RBP4 polyclonal antibody (Hokudo Co., Ltd). A 96 well ELISA plate was coated with 50 μg/ml of the antibody (100 μL) and stood at 4° C. overnight. After blocking with BlockAce (DAINIPPON PHARMACEUTICAL CO., LTD.), mouse RBP4 or a sample (100 μL) was added and the plate was stood at room temperature for 2 hr. After washing with PBS-0.5% Tween 20, HRP-labeled anti-RBP4 antibody (prepared by labeling RBP4 polyclonal antibody (Hokudo Co., Ltd) with HRP (DOJINDO LABORATORIES)) was added by 100 μL, and the plate was stood at room temperature for 1 hr. After washing, TMB (Dako Cytomations) was added, and the mixture was stood at room temperature for 20 min to allow color development, and the reaction was quenched with 2N sulfuric acid. Thereafter, the absorbance at A450 nm was measured on a platereader. The amount of change from the initial value of each animal was determined as a relative value from the control group (% of initial/Control) at each time point. The results are shown in the following in mean±standard deviation (n=5).

Zucker fa/fa rats = assay: Hypoglycemic action in Zucker fa/fa rats (Experimental Example 4B); type: in vivo, rat; conditions: 10 mg/kg oral for 2 weeks, mean±SD n=5; for blood glucose level / RBP4: 24 hr after final administration; for glycated hemoglobin change (%): value after minus before administration; for RBP4: plasma
Procedure: A hypoglycemic action of the compound of the present invention was evaluated using Zucker fa/fa rats.
Male 25-week-old Zucker fa/fa rats (Takeda Pharmaceutical Company Limited) were acclimation bred in groups on CE-2 solid food (CLEA Japan, Inc.) up to 12 weeks of age, thereafter on high-fat diet D06110702 (LSG Corporation), with free access to food. At 25 weeks of age, the rats were grouped based on the body weight, blood glucose level, glycated hemoglobin level and blood RBP4 level (5 per group). Then, test compounds (Examples 16 and 17) were orally administered at a dose of 10 mg/kg (solvent: 0.5% methylcellulose solution (3 mL/kg)) for 2 weeks. At 24 hr from the final administration of the compounds, blood samples were collected from the tail vein, and plasma was separated. Using the collected plasma, (1) RBP4 concentration, (2) glycated hemoglobin level and (3) blood glucose level were measured. (1) was quantified according to the protocol described in Experimental Example 3. (2) was measured using Tosoh Corporation automatic glycohamoglobin analyzer (HLC-723 GHbV A1c2.2 or HLC-723G7 GHbV A1c2.2), and (3) was measured using Hitachi full-automatic analyzer (7070 or 7080).
A 0.5% methylcellulose solution (3 ml/kg) was orally administered to the control group. The results are shown below in mean±standard deviation (n=5). In the following Table, glycated hemoglobin change is obtained by subtracting the value before administration from that after administration.

Row | Structure (SMILES) | IC50 (human RBP4) [nM] | RBP4 (% of initial/Control) 0 hr later (RBP4) | RBP4 (% of initial/Control) 4 hr later (RBP4) | RBP4 (% of initial/Control) 7 hr later (RBP4) | RBP4 (% of initial/Control) 24 hr later (RBP4) | blood glucose level (Zucker fa/fa rats) [mg/dL] | glycated hemoglobin change (%) (Zucker fa/fa rats) | RBP4 (Zucker fa/fa rats) [µg/mL]
1 | O=C(O)CO[C@H]1CCN(c2cc(C(F)(F)F)cc(C(F)(F)F)c2)C1 [Example 16, ({(3S)-1-[3,5-bis(trifluoromethyl)phenyl]pyrrolidin-3-yl}oxy)acetic acid] | 28 | 100.0 ± 11.0 % of initial/Control | 39.5 ± 0.6 % of initial/Control | 39.6 ± 0.4 % of initial/Control | 37.5 ± 0.4 % of initial/Control | 275.9 ± 127.5 | −0.58 ± 0.59 | 5.7 ± 0.1
2 | O=C(O)CO[C@@H]1CCN(c2cc(C(F)(F)F)cc(C(F)(F)F)c2)C1 [Example 17, ({(3R)-1-[3,5-bis(trifluoromethyl)phenyl]pyrrolidin-3-yl}oxy)acetic acid] | 20 | 100.0 ± 7.1 % of initial/Control | 42.2 ± 0.6 % of initial/Control | 40.5 ± 0.2 % of initial/Control | 38.6 ± 0.8 % of initial/Control | 255.4 ± 106.7 | −0.60 ± 0.39 | 6.0 ± 0.1
